From patent publication US9096598B2 (Merck Sharp & Dohme Corp., priority 2011, dated 2015)

Experiments:
JAK3 = biological target: T1, JAK3 (Homo sapiens, UniProt P52333); experiment: Jak Biochemical HTRF Assay (JAK3); conditions: recombinant purified GST-tagged catalytic domain, [ATP] 2.9 μM, values given as range classes
T1 construct: recombinant purified GST-tagged catalytic domain for each enzyme; purchased Invitrogen M4290
Method: (§1) Jak Biochemical HTRF Assay Protocol
(§2) The ability of compounds to inhibit the activity of JAK1, JAK2, JAK3, and Tyk2 was measured using a recombinant purified GST-tagged catalytic domain for each enzyme (Invitrogen JAK1 #M4290, JAK2 #M4290, JAK3 #M4290, Tyk2 #M4290) in an HTRF format biochemical assay. The reactions employed a common peptide substrate, LCB-EQEDEPEGDYFEWLW-NH2 (in-house). The basic assay protocol is as follows: First, 250 nL of diluted compounds in DMSO were dispensed into the wells of a dry 384-well Black plate (Greiner #781076) using a Labcyte Echo 555 acoustic dispenser. Subsequent reagent additions employed an Agilent Bravo. Next, 18 μL of 1.11× enzyme and 1.11× substrate in 1× assay buffer (Invitrogen kinase buffer #PV3189, 2 mM DTT, 0.05% BSA) were added to the wells and shaken and then preincubated for 30 minutes at room temperature to allow compound binding to equilibrate. After equilibration, 2 μL of 10×ATP in 1× assay buffer was added to initiate the kinase reaction and the plates were shaken and then incubated at room temperature for 120 minutes. At the end of the incubation, 20 μL of 2× stop buffer (streptavidin-Dylight 650 (Thermo #84547B/100 mL), Eu-tagged pY20 antibody (Perkin Elmer #AD0067), EDTA, HEPES, and Triton) was added to quench the reaction. Plates were shaken and centrifuged and then incubated 60 minutes at room temperature and then read on a Perkin Elmer Envision (λex=337 nm, λem=665 and 615 nm, TRF delay time=20 μs). HTRF signal=10,000*665 nm reading/615 nm reading. After normalization to untreated controls, the percent inhibition of the HTRF signal at each compound concentration was calculated. The plot of percent inhibition versus the log of compound concentration was fit with a 4-parameter dose response equation to calculate IC50 values.
(§3) Final reaction conditions were:
(§4) Examples of the instant invention were evaluated in JAK2 and JAK3 in vitro binding assays. Table 13 tabulates the biological data disclosed for the instant invention as a range of JAK2 and JAK3 IC50 values (A: IC50≦10 nM; B: 10 nM>IC50≦500 nM C: IC50>500 nM).

JAK2 = biological target: T2, JAK2 (Homo sapiens, UniProt O60674); experiment: Jak Biochemical HTRF Assay (JAK2); conditions: recombinant purified GST-tagged catalytic domain, [ATP] 8.5 μM, values given as range classes
T2 construct: recombinant purified GST-tagged catalytic domain for each enzyme; purchased Invitrogen M4290
T2 sequence (O60674 849-1124 limits assumed): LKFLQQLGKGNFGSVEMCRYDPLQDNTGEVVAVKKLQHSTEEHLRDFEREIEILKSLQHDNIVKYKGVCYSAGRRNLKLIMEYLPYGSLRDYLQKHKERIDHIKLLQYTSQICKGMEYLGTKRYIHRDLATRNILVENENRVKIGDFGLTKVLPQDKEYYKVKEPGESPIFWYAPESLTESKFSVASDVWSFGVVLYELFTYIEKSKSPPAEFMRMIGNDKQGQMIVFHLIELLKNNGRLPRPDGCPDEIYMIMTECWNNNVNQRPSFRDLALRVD
Method: as §1, §2, §3, §4

T1 sequence (P52333 822-1111 limits assumed): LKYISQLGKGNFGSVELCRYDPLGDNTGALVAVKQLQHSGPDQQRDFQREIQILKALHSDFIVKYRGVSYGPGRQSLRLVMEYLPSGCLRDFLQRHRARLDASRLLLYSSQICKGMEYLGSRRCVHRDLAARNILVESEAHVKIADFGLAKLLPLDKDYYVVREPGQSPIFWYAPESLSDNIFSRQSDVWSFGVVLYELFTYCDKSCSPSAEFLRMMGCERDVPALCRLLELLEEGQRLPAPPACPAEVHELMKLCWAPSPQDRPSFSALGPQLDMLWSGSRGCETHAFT

IC50 (JAK3) [nM] | IC50 (JAK2) [nM] | SMILES
≤ 10 | 10 to 500 | COCCOc1cnc2[nH]cc(-c3cncc(NC(C(=O)NCC(F)(F)F)C(C)C)c3)c2c1 (stereo not drawn) [Example 2-2]
≤ 10 | 10 to 500 | CC(C)Oc1cnc2[nH]cc(-c3cncc(N[C@@H](C(=O)NCC(F)(F)F)C(C)C)c3)c2c1 [Example 2-3, N~2~-{5-[5-(1-methylethoxy)-1H-pyrrolo[2,3-b]pyridin-3-yl]pyridin-3-yl}-N-(2,2,2-trifluoroethyl)-D-valinamide]
≤ 10 | 10 to 500 | CC(C)[C@H](Nc1cncc(-c2c[nH]c3ncc(OCC4CC4)cc23)c1)C(=O)NCC(F)(F)F [Example 2-6, N~2~-{5-[5-(cyclopropylmethoxy)-1H-pyrrolo[2,3-b]pyridin-3-yl]pyridin-3-yl}-N-(2,2,2-trifluoroethyl)valinamide]
≤ 10 | 10 to 500 | CC(C)[C@H](Nc1cncc(-c2c[nH]c3ncc(OCCc4ccccn4)cc23)c1)C(=O)NCC(F)(F)F [Example 2-12, N~2~-{5-[5-(2-pyridin-2-ylethoxy)-1H-pyrrolo[2,3-b]pyridin-3-yl]pyridin-3-yl}-N-(2,2,2-trifluoroethyl)valinamide]
10 to 500 | > 500 | CC(C)[C@H](Nc1cncc(-c2c[nH]c3ncc(OCCN(C)C)cc23)c1)C(=O)NCC(F)(F)F [Example 2-13, N~2~-(5-{5-[2-(dimethylamino)ethoxy]-1H-pyrrolo[2,3-b]pyridin-3-yl}pyridin-3-yl)-N-(2,2,2-trifluoroethyl)valinamide]
≤ 10 | 10 to 500 | CC(C)[C@H](Nc1cncc(-c2c[nH]c3ncc(OCCCN(C)C)cc23)c1)C(=O)NCC(F)(F)F [Example 2-14, N~2~-(5-{5-[3-(dimethylamino)propoxy]-1H-pyrrolo[2,3-b]pyridin-3-yl}pyridin-3-yl)-N-(2,2,2-trifluoroethyl)valinamide]
10 to 500 | > 500 | CC(C)[C@@H](Nc1cncc(-c2c[nH]c3ncc(C(=O)N(C)C)cc23)c1)C(=O)NCC(F)(F)F [Example 3-1, (R)—N,N-dimethyl-3-(5-(3-methyl-1-oxo-1-(2,2,2-trifluoroethylamino)butan-2-ylamino)pyridin-3-yl)-1H-pyrrolo[2,3-b]pyridine-5-carboxamide]

The next lines start with the compound.

SMILES | IC50 (JAK3) [nM] | IC50 (JAK2) [nM]
COc1cnc2[nH]cc(-c3cncc(N[C@@H](C(=O)NCC(F)(F)F)C(C)(C)O)c3)c2c1 [Example 1-50, 3-hydroxy-N~2~-[5-(5-methoxy-1H-pyrrolo[2,3-b]pyridin-3-yl)pyridin-3-yl]-N-(2,2,2-trifluoroethyl)-D-valinamide] | ≤ 10 | 10 to 500
CC(C)[C@@H](Nc1cncc(-c2c[nH]c3ncc(Cl)cc23)c1)C(=O)NCC(F)(F)F [Example 1-51, N~2~-[5-(5-chloro-1H-pyrrolo[2,3-b]pyridin-3-yl)pyridin-3-yl]-N-(2,2,2-trifluoroethyl)-D-valinamide] | ≤ 10 | ≤ 10
CC(C)[C@H](Nc1cncc(-c2c[nH]c3ncc(Cl)cc23)c1)C(=O)NCC(F)(F)F [Example 1-52, N-18 2~-[5-(5-chloro-1H-pyrrolo[2,3-b]pyridin-3-yl)pyridin-3-yl]-N-(2,2,2-trifluoroethyl)-L-valinamide] | ≤ 10 | 10 to 500
CC(C)C(Nc1cncc(-c2c[nH]c3ncc(O)cc23)c1)C(=O)NCC(F)(F)F (stereo not drawn) [Example 2-1, 2-{[5-(5-hydroxy-1H-pyrrolo[2,3-b]pyridin-3-yl)pyridin-3-yl]amino}-3-methyl-N-(2,2,2-trifluoroethyl)butanamide] | ≤ 10 | 10 to 500
CC(C)[C@H](Nc1cncc(-c2c[nH]c3ncc(OCc4ccccc4)cc23)c1)C(=O)NCC(F)(F)F [Example 2-4, N~2~-{5-[5-(benzyloxy)-1H-pyrrolo[2,3-b]pyridin-3-yl]pyridin-3-yl}-N-(2,2,2-trifluoroethyl)valinamide] | ≤ 10 | 10 to 500
CC(C)[C@H](Nc1cncc(-c2c[nH]c3ncc(OC4CCCC4)cc23)c1)C(=O)NCC(F)(F)F [Example 2-5, N~2~-{5-[5-(cyclopentyloxy)-1H-pyrrolo[2,3-b]pyridin-3-yl]pyridin-3-yl}-N-(2,2,2-trifluoroethyl)valinamide] | ≤ 10 | 10 to 500
CC(C)[C@H](Nc1cncc(-c2c[nH]c3ncc(OCCc4ccccc4)cc23)c1)C(=O)NCC(F)(F)F [Example 2-7, N~2~-{5-[5-(2-phenylethoxy)-1H-pyrrolo[2,3-b]pyridin-3-yl]pyridin-3-yl}-N-(2,2,2-trifluoroethyl)valinamide] | ≤ 10 | 10 to 500
CC(C)[C@H](Nc1cncc(-c2c[nH]c3ncc(OC4Cc5ccccc5C4)cc23)c1)C(=O)NCC(F)(F)F [Example 2-8, N~2~-{5-[5-(2,3-dihydro-1H-inden-2-yloxy)-1H-pyrrolo[2,3-b]pyridin-3-yl]pyridin-3-yl}-N-(2,2,2-trifluoroethyl)valinamide] | ≤ 10 | 10 to 500
CC(C)[C@H](Nc1cncc(-c2c[nH]c3ncc(OC4CCOCC4)cc23)c1)C(=O)NCC(F)(F)F [Example 2-9, N~2~-{5-[5-(tetrahydro-2H-pyran-4-yloxy)-1H-pyrrolo[2,3-b]pyridin-3-yl]pyridin-3-yl}-N-(2,2,2-trifluoroethyl)valinamide] | ≤ 10 | 10 to 500
CC(C)[C@H](Nc1cncc(-c2c[nH]c3ncc(OCCN4CCCC4=O)cc23)c1)C(=O)NCC(F)(F)F [Example 2-10, N~2~-(5-{5-[2-(2-oxopyrrolidin-1-yl)ethoxy]-1H-pyrrolo[2,3-b]pyridin-3-yl}pyridin-3-yl)-N-(2,2,2-trifluoroethyl)valinamide] | ≤ 10 | 10 to 500
CC(C)[C@H](Nc1cncc(-c2c[nH]c3ncc(OCc4cccnc4)cc23)c1)C(=O)NCC(F)(F)F [Example 2-11, N~2~-{5-[5-(pyridin-3-ylmethoxy)-1H-pyrrolo[2,3-b]pyridin-3-yl]pyridin-3-yl}-N-(2,2,2-trifluoroethyl)valinamide] | ≤ 10 | 10 to 500
CC(C)[C@H](Nc1cncc(-c2c[nH]c3ncc(OCCN4CCOCC4)cc23)c1)C(=O)NCC(F)(F)F [Example 2-15, N~2~-{5-[5-(2-morpholin-4-ylethoxy)-1H-pyrrolo[2,3-b]pyridin-3-yl]pyridin-3-yl}-N-(2,2,2-trifluoroethyl)valinamide] | ≤ 10 | 10 to 500
CC(C)C(Nc1cncc(-c2c[nH]c3ncc(OC4CCN(C)CC4)cc23)c1)C(=O)NCC(F)(F)F (stereo not drawn) [Example 2-16, N~2~-(5-{5-[(1-methylpiperidin-4-yl)oxy]-1H-pyrrolo[2,3-b]pridin-3-yl}pyridin-3-yl)-N-(2,2,2-trifluoroethyl)valinamide] | ≤ 10 | 10 to 500
CC(C)[C@H](Nc1cncc(-c2c[nH]c3ncc(OCCN4CCN(C)CC4)cc23)c1)C(=O)NCC(F)(F)F [Example 2-17, N~2~-(5-{5-[2-(4-methylpiperazin-1-yl)ethoxy]-1H-pyrrolo[2,3-b]pyridin-3-yl}pyridin-3-yl)-N-(2,2,2-trifluoroethyl)valinamide] | ≤ 10 | 10 to 500
CC(C)C(Nc1cncc(-c2c[nH]c3ncc(OCC4CCN(C)CC4)cc23)c1)C(=O)NCC(F)(F)F (stereo not drawn) [Example 2-18, N~2~-(5-{5-[(1-methylpiperidin-4-yl)methoxy]-1H-pyrrolo[2,3-b]ppidin-3-yl}pyridin-3-yl)-N-(2,2,2-trifluoroethyl)valinamide] | ≤ 10 | 10 to 500
CC(C)NC(=O)c1cnc2[nH]cc(-c3cncc(N[C@@H](C(=O)NCC(F)(F)F)C(C)C)c3)c2c1 [Example 3-2, N-(1-methylethyl)-3-[5-({(1R)-2-methyl-1-[(2,2,2-trifluoroethyl)carbamoyl]propyl}amino)pyridin-3-yl]-1H-pyrrolo[2,3-b]pyridine-5-carboxamide] | ≤ 10 | ≤ 10
COCC(C)NC(=O)c1cnc2[nH]cc(-c3cncc(N[C@@H](C(=O)NCC(F)(F)F)C(C)C)c3)c2c1 (stereo partly drawn) [Example 3-3, N-(2-methoxy-1-methylethyl)-3-[5-({(1R)-2-methyl-1-[(2,2,2-trifluoroethyl)carbamoyl]propyl}amino)pyridin-3-yl]-1H-pyrrolo[2,3-b]pyridine-5-carboxamide] | ≤ 10 | 10 to 500
